Experimental data taken from patent US20260158011A1 (Achieve Life Sciences, Inc., priority 2023, published 2026).
Read-outs that look alike come from different tables or passages of the source.

Test system: adults who smoked 10 cigarettes per day
Experimental: Safety was assessed by measurement of vital signs and participant self-report of adverse events and concomitant medications on day 2 and at weekly visits during treatment from week 1 to 12 and through an additional 12-week follow-up. Hematology and chemistry laboratory tests were done at weeks 1, 6, and 12. Electrocardiograms were done at weeks 6 and 12. Clinically significant adverse events or abnormalities were followed until resolution or end of study.
The study had two primary endpoints. […] Study success was defined as either primary endpoint meeting statistical criterion. The secondary outcome measures were verified continuous cigarette abstinence to week 24 (weeks 3 to 24 for Arms B vs. A; weeks 9 to 24 for Arms C vs. A). A third secondary outcome measure compared the risk of relapse to smoking between weeks 6 and 24 among participants assigned to cytisinicline who achieved abstinence by week 6; these individuals were either switched to placebo at week 6 (Arm B) or continued cytisinicline to week 12 (Arm C). Other pre-specified endpoints included comparing the difference between arms in verified 7-day point-prevalence abstinence at each visit from week 2 through week 24 and assessing for evidence of effect modification for subsets defined by baseline attributes. To assess cigarette craving between groups, the Brief Questionnaire of Smoking Urges (QSU-brief) was administered at clinic visits on Day 0 and at Weeks 1 to 6 (4, 5). Safety outcomes included the incidence of treatment-emergent serious and non-serious adverse events during treatment with cytisinicline or placebo and clinically-significant changes in vital signs, laboratory tests or electrocardiograms.
Analyses for the binary primary and secondary outcomes were based on exact analyses 2×2 tables stratified by clinical site. Missed assessments of primary and secondary endpoints were imputed as non-success, thereby enabling analyses following the intent-to-treat principle. The Hochberg procedure was used to control for multiplicity (6). A target sample of 750 participants (n=250 per arm) was computed and verified using simulations to provide 96% power for specifications of an overall one-sided 0.025 type I error probability and success probabilities of 7% for placebo and 19% for cytisinicline. Sensitivity analyses included assessments of effect modification related to subsets defined by baseline attributes using logistic and cumulative logit models. Longitudinal analyses used Mixed Model for Repeated Measures methodology (7). Safety analyses included all randomized participants who received at least one dose of study drug. Analyses were conducted by BB.

[1] = Arm B Cytisinicline 6 weeks + placebo 6 weeks, N = 269
[2] = Arm B Cytisinicline 6 weeks + placebo 6 weeks, of 459 events
[3] = Arm C Cytisinicline 12 weeks, N = 270
[4] = Arm C Cytisinicline 12 weeks, of 494 events

For `O=c1cccc2n1C[C@@H]1CNC[C@H]2C1` [cytisine, (−)-Cytisine], the “Treatment-emergent adverse events reported” value (6-week cytisinicline arm) was 172 (63.9%) participants (%), the “Treatment-emergent adverse events reported” value (12-week cytisinicline arm) was 184 (68.2%) participants (%) and the “OR for serious adverse events, cytisinicline versus placebo” value (539 cytisinicline vs 270 placebo participants) was 3.08. The “Study drug discontinuation due to adverse events” value (“Study drug discontinuation due” below) (Arm B) was 2.6%, the “Number of treatment emergent adverse events” value [1] was 459 and the “Participants with Abnormal dreams (treatment-emergent adverse event), %” value [1] was 8.2%. For the same compound, the “Participants with Anxiety (treatment-emergent adverse event), %” value [1] was 2.6%, the “Participants with Constipation (treatment-emergent adverse event), %” value [1] was 5.9% and the “Participants with Diarrhea (treatment-emergent adverse event), %” value [1] was 3.7%. The “Participants with Headache (treatment-emergent adverse event), %” value [1] was 6.7%, the “Participants with Insomnia (treatment-emergent adverse event), %” value [1] was 8.6% and the “Participants with Nausea (treatment-emergent adverse event), %” value [1] was 5.9%. For the same compound, the “Participants with any serious adverse event, %” value [1] was 3.7%, the “Participants with any treatment emergent adverse event, %” value [1] was 63.9% and the “Participants with any treatment-related serious adverse event, %” value [1] was 0%. The “Treatment emergent adverse events, Mild, %” value [2] was 63.2%, the “Treatment emergent adverse events, Moderate, %” value [2] was 32.2% and the “Treatment emergent adverse events, Severe, %” value [2] was 4.6%. For the same compound, the “Study drug discontinuation due” value (Arm C) was 3.7%, the “Number of treatment emergent adverse events” value [3] was 494 and the “Participants with Abnormal dreams (treatment-emergent adverse event), %” value [3] was 7.8%. The “Participants with Anxiety (treatment-emergent adverse event), %” value [3] was 5.6%, the “Participants with Constipation (treatment-emergent adverse event), %” value [3] was 4.8% and the “Participants with Diarrhea (treatment-emergent adverse event), %” value [3] was 4.4%. For the same compound, the “Participants with Headache (treatment-emergent adverse event), %” value [3] was 7.8%, the “Participants with Insomnia (treatment-emergent adverse event), %” value [3] was 9.6% and the “Participants with Nausea (treatment-emergent adverse event), %” value [3] was 5.6%. The “Participants with any serious adverse event, %” value [3] was 3.0%, the “Participants with any treatment emergent adverse event, %” value [3] was 68.2% and the “Participants with any treatment-related serious adverse event, %” value [3] was 0%. For the same compound, the “Treatment emergent adverse events, Mild, %” value [4] was 61.3%, the “Treatment emergent adverse events, Moderate, %” value [4] was 36.0% and the “Treatment emergent adverse events, Severe, %” value [4] was 2.6%. The “Treatment-related SAEs” value (all arms) was “No SAE was judged to be treatment-related”, the “Serious adverse events (SAEs)” value (of 539 participants on cytisinicline) was 18 (3.3%) participants (%) and the “Study drug discontinuation due” value (of 539 participants receiving cytisinicline (Arms B and C)) was 17 (3.2%) participants (%).
